According to the NIST ThermoML archive (doi:10.1021/je100353j):

Experiment: xn = mol fraction of the nth substance listed
Settings: Liquid

COC(=O)OC [dimethyl carbonate] + C1CCCCC1
mass density [kg/m3]
Settings	x1 = 0.1	x1 = 0.2	x1 = 0.3	x1 = 0.4	x1 = 0.5	x1 = 0.6	x1 = 0.7	x1 = 0.8	x1 = 0.9	x1 = 1
293.15 K, 100 kPa	797.9	818.3	842.3	866	893.7	923.6	957.5	991	1030.4	1069.8
293.15 K, 5000 kPa	802.2	822.7	846.9	870.7	898.5	928.4	962.3	995.8	1035.1	1074.4
293.15 K, 10000 kPa	806.2	827	851.2	875.3	903.1	933	966.9	1000.3	1039.5	1078.6
293.15 K, 20000 kPa	813.9	835	859.6	883.9	911.8	941.8	975.7	1009	1048	1086.9
293.15 K, 30000 kPa	821.3	842.7	867.5	892	920	950	983.8	1017.1	1055.8	1094.5
293.15 K, 40000 kPa	828.5	850.2	875.2	899.8	928	958	991.8	1025	1063.5	1101.9
298.15 K, 100 kPa	792.3	812.5	836.3	860	887.4	917	950.8	984.2	1023.2	1063.2
298.15 K, 5000 kPa	796.9	817.3	841.3	865.1	892.6	922.2	956	989.4	1028.2	1068
298.15 K, 10000 kPa	801.2	821.8	846	870	897.5	927.1	960.8	994.2	1032.8	1072.4
298.15 K, 20000 kPa	809.2	830.2	854.6	878.8	906.5	936.1	969.8	1003.1	1041.5	1080.8
298.15 K, 30000 kPa	816.5	837.8	862.5	887	914.8	944.5	978.2	1011.4	1049.7	1088.7
298.15 K, 40000 kPa	823.2	844.8	869.8	894.5	922.5	952.3	986.1	1019.3	1057.4	1096.2
303.15 K, 100 kPa	786.9	806.9	830.4	854.1	881.2	910.1	944.1	977.4	1015.8	1056.5
303.15 K, 5000 kPa	791.4	811.7	835.4	859.2	886.4	915.4	949.3	982.6	1020.9	1061.3
303.15 K, 10000 kPa	796	816.5	840.4	864.4	891.6	920.6	954.5	987.7	1025.8	1065
